# Literature values as cited in patent US20120171239A1, “Immunogenic Conjugates for Producing Immune Responses to Drugs of Abuse and Methods of Use” (priority 2009, published 2012).
# Test system: D2
# Conditions: i.v. injection of 1.0 mg/kg cocaine, PET
smiles,measurement,value
COC(=O)[C@H]1[C@@H](OC(=O)c2ccccc2)C[C@@H]2CC[C@H]1N2C [cocaine],reduction of FCP uptake,≤ 40%
